The text below walks through data of ChEMBL document CHEMBL5143531, “Towards multi-target antidiabetic agents: In vitro and in vivo evaluation of 3,5-disubstituted indolin-2-one derivatives as novel α-glucosidase inhibitors” (Bioorg Med Chem Lett, 2022).

A short description of assay [1]: Inhibition of yeast alpha-glucosidase using p-nitrophenyl glycoside as substrate preincubated with enzyme for 15 mins followed by substrate addition for 30 mins. More on the design: species or system Saccharomyces cerevisiae.
Assay [2] has as its system Saccharomyces cerevisiae. The assay is described as follows: Inhibition of yeast alpha-glucosidase at 100 uM.
Assay [3] can be described thus: Inhibition of yeast alpha-glucosidase. Details: species or system Saccharomyces cerevisiae.
Assay [4] is described as follows: Inhibition of yeast alpha-glucosidase using p-nitrophenyl glycoside as substrate preincubated with enzyme for 30 mins followed by substrate addition for 60 mins by spectrophotometric analysis. Details: species or system Saccharomyces cerevisiae.
In assay [5] the test system is Rattus norvegicus. Nature of the assay: Anti-hyperglycemic activity in Wistar rat assessed as reduction in plasma glucose AUC (0 to 120 mins) at 5 mg/kg, po followed by maltose load by oral maltose tolerance test. It is filed as functional.
Assay [6] concerns Rattus norvegicus. Nature of the assay: Anti-hyperglycemic activity in Wistar rat assessed as reduction in plasma glucose AUC (0 to 120 mins) at 5 mg/kg, po followed by sucrose load by oral sucrose tolerance test. In kind it is functional.
Assay [7] relates to Saccharomyces cerevisiae. The assay is described as follows: Potency index, ratio of acarbose IC50 to test compound IC50 for inhibition of yeast alpha-glucosidase.
In assay [8] the test system is Rattus norvegicus. Nature of the assay: Anti-hyperglycemic activity in Wistar rat assessed as reduction in plasma glucose AUC (0 to 120 mins) at 5 mg/kg, po followed by glucose load by oral glucose tolerance test. It is filed as functional.
Assay [9] has as its target Glycogen synthase kinase-3 beta (Homo sapiens, UniProt P49841).
For assay [10], the system named is Rattus norvegicus. Nature of the assay: Anti-hyperglycemic activity in Wistar rat assessed as reduction in plasma glucose AUC (0 to 120 mins) at 10 mg/kg, po followed by sucrose load by oral sucrose tolerance test. In kind it is functional.
Assay [11] concerns Rattus norvegicus. Nature of the assay: Anti-hyperglycemic activity in Wistar rat assessed as reduction in plasma glucose AUC (0 to 120 mins) at 10 mg/kg, po followed by glucose load by oral glucose tolerance test. In kind it is functional.

Sequence of Glycogen synthase kinase-3 beta (P49841 whole entry): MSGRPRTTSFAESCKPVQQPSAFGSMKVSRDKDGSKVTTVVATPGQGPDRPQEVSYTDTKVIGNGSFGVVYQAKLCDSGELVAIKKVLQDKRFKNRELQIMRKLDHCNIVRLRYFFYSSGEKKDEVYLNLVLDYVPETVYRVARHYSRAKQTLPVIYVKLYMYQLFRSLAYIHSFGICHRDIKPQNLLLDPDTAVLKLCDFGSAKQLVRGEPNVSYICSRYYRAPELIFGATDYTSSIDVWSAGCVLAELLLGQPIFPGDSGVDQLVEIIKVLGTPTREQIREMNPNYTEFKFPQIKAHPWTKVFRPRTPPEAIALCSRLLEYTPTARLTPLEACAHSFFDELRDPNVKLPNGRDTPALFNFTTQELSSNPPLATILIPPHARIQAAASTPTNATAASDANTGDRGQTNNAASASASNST

What is called IC50 is the point on the concentration scale where inhibition reaches its midpoint. Lower therefore signals inhibition by little substance. In assay [1], `O=C(N/N=C/c1cc(O)c(O)c(O)c1)c1cc2ccccc2[nH]1` had an IC50 of 2.3 µM.

For orientation: inhibition means the change of the read-out against control, counted positive when it falls. In the case of `COc1ccc2c(c1)C(O)(CC(=O)c1ccc(C)cc1)C(=O)N2` (stereo unspecified), the inhibition in assay [2] was 65.4%. The compound further gave an IC50 in assay [3] of 60 µM.

With `COC(=O)Nc1ccc2c(c1)C(=Cc1ccc(O)cc1)C(=O)N2`, the inhibition in assay [2] came to 57.9%. In addition, the IC50 in [3] was determined as 76.7 µM.

In the case of `O=C(CSc1nnc2c(n1)[nH]c1ccccc12)c1cccc(O)c1`, inhibition in assay [4] was half-maximal at 2.5 µM (IC50).

On to `CC(=O)Nc1ccc2c(c1)C(CC(=O)O)(OC(C)=O)C(=O)N2` (stereo unspecified), for which the inhibition in assay [2] was -5.09%.

As to `CCC(=O)Nc1cc(NC(=O)CC)c2c(c1)C(CC#N)(OC(=O)CC)C(=O)N2` (stereo unspecified), the inhibition in [2] was 14.4%.

As for `CN1C(=O)C(=Cc2ccccn2)c2ccccc21`, the inhibition in [2] came to 19.9%.

As for `CN1C(=O)C2(CC2C#N)c2cc(Br)ccc21` (stereo unspecified), in [2], the inhibition was 61.2%.

In the case of `COc1cc(C=C2C(=O)Nc3ccc(NC(C)=O)cc32)cc(OC)c1OC`, in [2], the inhibition is -9.74%.

In the case of `COc1cc(NC(C)=O)c2c(c1)C(CC#N)(OC(C)=O)C(=O)N2` (stereo unspecified), in assay [2], the inhibition was 4.75%.

Consider `COc1ccc(C(=O)CC2(O)C(=O)Nc3ccc(Br)cc32)cc1` (stereo unspecified), for which the inhibition in [2] is -3.83%.

Turning to `Cc1ccc(C(=O)CC2(O)C(=O)Nc3ccc(Br)cc32)cc1` (stereo unspecified), in [2], the inhibition is -3.94%.

For the compound `Cc1ccc(C(=O)CC2(O)C(=O)Nc3ccc(NC(=O)c4ccccc4)cc32)cc1` (stereo unspecified), the inhibition in assay [2] was determined as 52.2%.

In the case of `Cc1ccc(C(=O)CC2(O)C(=O)Nc3ccccc32)cc1` (stereo unspecified), in assay [2], the inhibition was -4.01%.

With `Cn1cc(C=C2C(=O)Nc3ccccc32)cn1`, the inhibition in assay [2] came to 34.5%.

On to `N#CCC1(O)C(=O)Nc2ccc(NC(=O)c3ccccc3)cc21` (stereo unspecified), for which the inhibition in assay [2] was determined as 29.2%.

Take `Nc1ccc(CC2C(=O)Nc3ccccc32)cc1` (stereo unspecified): the inhibition in assay [2] was -3.64%.

With `O=C1Nc2ccc(Br)cc2C1=Cc1ccccn1`, in [2], the inhibition was -1.49%.

Take `O=C1Nc2ccc(Br)cc2C1=Cc1cccnc1`: in [2], the inhibition is 10.7%.

For `O=C1Nc2ccc([N+](=O)[O-])cc2C1=Cc1cccnc1`, in [2], the inhibition was -7.99%.

For the compound `O=C1Nc2ccccc2C12CC2c1ccccn1` (stereo unspecified), in assay [2], the inhibition stood at 12.1%.

On to `O=C1Nc2ccccc2C1=Cc1ccccn1`, for which the inhibition in assay [2] was -10%.

Usually inhibition in vivo stands for the share of the control response that was lost under treatment. On to `COC(=O)Nc1ccc2c(c1)C(=Cc1ccc([N+](=O)[O-])cc1)C(=O)N2` (mixture of isomers), for which the inhibition in vivo at 5 mg/kg amounted to 42.1% in [5], 28.8% in [6] and 12.3% in assay [8]. The Ratio IC50 in [7] stood at 80. Moreover, the inhibition in [2] worked out at 103%. In [3], the IC50 was determined as 6.78 µM.

Regarding `O=C1Nc2ccccc2C1=Cc1ccc([N+](=O)[O-])cc1` (mixture of isomers), the inhibition in assay [2] amounted to 81.6%. This compound registered an IC50 in [3] of 62.4 µM.

For the compound `COC(=O)Nc1ccc2c(c1)C(=Cc1ccc(Br)cc1)C(=O)N2` (mixture of isomers), the inhibition in [2] is 81.7%. Inhibition in assay [3] was half-maximal at 68.9 µM (IC50).

As for `O=C1Nc2ccc(NC(=O)c3ccccc3)cc2C1=Cc1ccc([N+](=O)[O-])cc1` (mixture of isomers), the inhibition in assay [2] is 104%. In assay [3], the IC50 was found to be 56.6 µM.

As to `COc1ccc2c(c1)C(=CC(=O)O)C(=O)N2` (mixture of isomers), in assay [2], the inhibition came to 81.1%. The compound further returned an IC50 in [3] of 26.4 µM.

In the case of `O=C1Nc2ccc(NC(=O)c3ccccc3)cc2C1=Cc1ccc(O)cc1` (mixture of isomers), the inhibition in assay [2] was 92.3%. The IC50 in [3] came to 136 µM; in assay [9] it was 4.34 µM.

With `CN1C(=O)C(=Cc2ccc(O)cc2)c2ccccc21` (mixture of isomers), the inhibition in [2] was 33.2%.

Take `Cc1[nH]ncc1C=C1C(=O)Nc2ccccc21` (mixture of isomers): in assay [2], the inhibition stood at 40.8%.

`Cc1n[nH]c(C)c1C=C1C(=O)Nc2ccccc21` (mixture of isomers): in [2], the inhibition was determined as 12.6%.

`O=C1Nc2ccc(Br)cc2C1=CC(=O)c1ccco1` (mixture of isomers): in assay [2], the inhibition was -3.81%.

Regarding `O=C1Nc2ccc(Br)cc2C1=Cc1ccncc1` (mixture of isomers), in assay [2], the inhibition is -0.73%.

Consider `O=C1Nc2ccc(NC(=O)c3ccco3)cc2C1=Cc1ccc(O)cc1` (mixture of isomers), for which the inhibition in assay [2] worked out at 57.9%.

In the case of `O=C1Nc2ccc([N+](=O)[O-])cc2C1=Cc1ccncc1` (mixture of isomers), in assay [2], the inhibition was -1.71%.

With `O=C1Nc2ccc([N+](=O)[O-])cc2C1=Cc1cn[nH]c1C(=O)O` (mixture of isomers), in assay [2], the inhibition was determined as 33.6%.

As to `O=C1Nc2ccccc2C1=CC(=O)c1ccco1` (mixture of isomers), the inhibition in assay [2] was 37.5%.

Consider `O=C1Nc2ccccc2C1=Cc1cccnc1` (mixture of isomers), for which the inhibition in [2] amounted to 2.08%.

Turning to `O=C1Nc2ccccc2C1=Cc1cccs1` (mixture of isomers), the inhibition in assay [2] was -1.25%.

Consider `O=C1Nc2ccccc2C1=Cc1ccncc1` (mixture of isomers), for which the inhibition in assay [2] was -3.17%.

On to `O=C1Nc2ccccc2C1=Cc1cn[nH]c1C(=O)O` (mixture of isomers), for which the inhibition in assay [2] was 11.4%.

For the compound `Cc1nn(-c2ccccc2)c(C)c1C=C1C(=O)Nc2ccccc21` (single isomer, unassigned), the inhibition in [2] turned out to be 75.5%. This compound also gave an IC50 in assay [3] of 153 µM.

Consider `CC(=O)Nc1ccc2c(c1)C(=Cc1cccc(O)c1)C(=O)N2` (single isomer, unassigned; isomer 1), for which, in assay [2], the inhibition stood at 14.9%.

As for `COc1cc(C=C2C(=O)Nc3ccc(NC(=O)c4ccco4)cc32)cc(OC)c1OC` (single isomer, unassigned; isomer 1), the inhibition in assay [2] was 31.8%.

Consider `COc1ccc2c(c1)C(=CC#N)C(=O)N2Cc1ccccc1` (single isomer, unassigned; isomer 1), for which the inhibition in assay [2] was determined as 15.5%.

Consider `O=C1Nc2ccc([N+](=O)[O-])cc2C1=CC(=O)c1ccco1` (single isomer, unassigned; isomer 1), for which the inhibition in assay [2] is 8.9%.

On to `O=C1Nc2ccccc2C1=Cc1ccc(O)cc1` (single isomer, unassigned; isomer 1), for which, in assay [2], the inhibition worked out at 21.6%.

As to `C[C@H]1O[C@H](O[C@H]2[C@H](O)[C@@H](O)[C@@H](O[C@H]3[C@H](O)[C@@H](O)C(O)O[C@@H]3CO)O[C@@H]2CO)[C@H](O)[C@@H](O)[C@@H]1N[C@H]1C=C(CO)[C@@H](O)[C@H](O)[C@H]1O` (stereo partly specified) [ACARBOSE], in assay [5], the inhibition in vivo at 5 mg/kg came to 37.2%. The inhibition in [2] turned out to be 46.6%. The compound also gave an IC50 in assay [3] of 436 µM.

With `N#C[C@@H]1CCCN1C(=O)CNC12CC3CC(CC(O)(C3)C1)C2` [VILDAGLIPTIN], the figures for the inhibition in vivo at 10 mg/kg in [10] and in assay [11] were 17.9% and 28.6%, respectively.
